Patent publication US12559506B2, “Indazole based compounds and associated methods of use” (Arvinas Operations, Inc., priority 2021, dated 2026)
Like-named read-outs stand apart in the source and are kept apart here.

Molecular target: T1, LRRK2 (endogenous, HiBit tagged) (Homo sapiens, UniProt Q5S007)
T1 construct: endogenous in cells; host or cells: HEK293 cells with HiBit knock-in at the endogenous LRRK2 locus, stably expressing firefly luciferase
Assay: Endogenous LRRK2 degradation assay, endogenous gene C-terminally HiBit-tagged in HEK293 cells (Nano-Glo Dual Luciferase)
Assay type: cell-based
Settings: endogenous HiBit-tagged LRRK2 in HEK293 cells, 24 hours treatment
Summary of the method: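 LRRK2-HiBit quantified via Nano-Glo Dual Luciferase in HEK293 knock-in cells co-expressing firefly luciferase, after 24 h exposure to compound (1 μM final top, 1:3, 11 points). Values normalised to DMSO median per plate and curve-fitted; Alamar Blue viability run alongside.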

[1] = read-out: **Endogenous WT Dmax (%)

T1 sequence (Q5S007 whole entry): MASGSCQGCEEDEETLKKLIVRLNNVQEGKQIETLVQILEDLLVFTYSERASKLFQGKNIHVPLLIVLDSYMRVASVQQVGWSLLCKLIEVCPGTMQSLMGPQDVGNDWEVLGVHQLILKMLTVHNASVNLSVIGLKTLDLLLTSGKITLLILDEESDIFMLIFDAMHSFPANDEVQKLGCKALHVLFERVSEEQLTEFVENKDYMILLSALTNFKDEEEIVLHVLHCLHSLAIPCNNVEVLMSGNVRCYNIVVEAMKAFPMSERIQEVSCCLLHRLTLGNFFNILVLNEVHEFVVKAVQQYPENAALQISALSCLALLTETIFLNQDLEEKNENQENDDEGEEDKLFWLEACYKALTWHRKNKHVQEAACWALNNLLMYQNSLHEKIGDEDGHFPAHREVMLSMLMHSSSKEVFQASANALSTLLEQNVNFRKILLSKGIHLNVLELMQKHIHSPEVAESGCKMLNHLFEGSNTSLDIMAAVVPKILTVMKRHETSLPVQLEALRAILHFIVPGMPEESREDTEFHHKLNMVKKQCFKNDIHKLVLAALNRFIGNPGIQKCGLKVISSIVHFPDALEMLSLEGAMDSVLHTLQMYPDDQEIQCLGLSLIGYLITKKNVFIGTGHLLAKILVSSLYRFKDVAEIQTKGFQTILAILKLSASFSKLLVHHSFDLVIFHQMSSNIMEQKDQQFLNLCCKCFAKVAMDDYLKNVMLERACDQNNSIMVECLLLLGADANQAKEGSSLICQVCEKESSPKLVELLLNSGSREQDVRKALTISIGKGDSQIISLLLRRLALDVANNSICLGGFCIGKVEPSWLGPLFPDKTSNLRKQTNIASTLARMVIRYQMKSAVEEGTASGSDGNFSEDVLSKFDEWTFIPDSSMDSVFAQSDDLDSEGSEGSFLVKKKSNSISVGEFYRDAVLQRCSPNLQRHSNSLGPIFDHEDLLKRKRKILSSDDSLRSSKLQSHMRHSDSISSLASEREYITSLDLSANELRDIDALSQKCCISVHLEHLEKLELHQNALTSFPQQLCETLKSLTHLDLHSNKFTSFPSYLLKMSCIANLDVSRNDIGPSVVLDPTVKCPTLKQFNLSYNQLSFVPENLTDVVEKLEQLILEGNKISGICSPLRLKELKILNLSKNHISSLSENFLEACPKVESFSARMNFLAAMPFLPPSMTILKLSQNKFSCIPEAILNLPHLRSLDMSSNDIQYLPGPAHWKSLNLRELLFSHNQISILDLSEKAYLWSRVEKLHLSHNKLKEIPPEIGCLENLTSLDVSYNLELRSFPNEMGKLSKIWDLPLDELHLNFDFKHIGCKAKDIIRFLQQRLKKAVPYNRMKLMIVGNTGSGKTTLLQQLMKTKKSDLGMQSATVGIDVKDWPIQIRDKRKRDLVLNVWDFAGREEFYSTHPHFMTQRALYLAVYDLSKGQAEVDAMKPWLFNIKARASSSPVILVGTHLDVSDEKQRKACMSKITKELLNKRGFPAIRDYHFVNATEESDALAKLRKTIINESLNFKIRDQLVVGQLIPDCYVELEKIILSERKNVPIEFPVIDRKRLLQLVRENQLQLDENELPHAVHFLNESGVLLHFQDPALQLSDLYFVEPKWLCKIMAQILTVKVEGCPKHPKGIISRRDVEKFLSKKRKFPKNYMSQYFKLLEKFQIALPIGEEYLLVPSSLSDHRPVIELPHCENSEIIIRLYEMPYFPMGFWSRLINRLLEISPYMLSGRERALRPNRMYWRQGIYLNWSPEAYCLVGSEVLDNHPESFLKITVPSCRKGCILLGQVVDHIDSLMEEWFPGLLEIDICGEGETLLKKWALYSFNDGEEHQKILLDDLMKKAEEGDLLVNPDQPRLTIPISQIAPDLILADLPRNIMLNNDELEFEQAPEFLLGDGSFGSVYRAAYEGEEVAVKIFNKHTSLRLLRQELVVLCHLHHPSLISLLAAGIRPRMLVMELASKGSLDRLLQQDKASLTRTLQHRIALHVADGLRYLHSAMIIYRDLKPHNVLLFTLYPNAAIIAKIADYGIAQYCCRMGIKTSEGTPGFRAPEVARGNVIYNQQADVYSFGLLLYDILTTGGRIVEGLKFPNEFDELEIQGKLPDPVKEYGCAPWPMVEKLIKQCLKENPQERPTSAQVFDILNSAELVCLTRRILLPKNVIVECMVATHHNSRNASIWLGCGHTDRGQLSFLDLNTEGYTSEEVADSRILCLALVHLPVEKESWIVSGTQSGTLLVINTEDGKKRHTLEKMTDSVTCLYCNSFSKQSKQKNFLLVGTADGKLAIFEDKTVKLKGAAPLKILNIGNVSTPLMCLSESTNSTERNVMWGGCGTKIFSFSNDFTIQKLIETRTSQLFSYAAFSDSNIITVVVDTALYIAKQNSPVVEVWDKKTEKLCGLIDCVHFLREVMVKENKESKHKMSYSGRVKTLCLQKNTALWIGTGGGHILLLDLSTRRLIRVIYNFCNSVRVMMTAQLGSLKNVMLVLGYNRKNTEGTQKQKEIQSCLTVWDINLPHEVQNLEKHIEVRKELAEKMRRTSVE

Structure (SMILES) | Dmax [1] | DC50 (read-out: *Endogenous WT DC50) | DC50 (read-out: Endogenous WT DC50) | Dmax (read-out: Endogenous WT Dmax)
CC1(Oc2ccc3[nH]nc(-c4ccnc(N5CCC(O[C@H]6CC[C@H](CN7CCN(c8ccc9c(c8F)CN(C8CCC(=O)NC8=O)C9=O)CC7)CC6)CC5)c4)c3c2)CC1 (stereo partly shown) [Compound 354, 3-(4-fluoro-5-(4-(((1r,4r)-4-((1-(4-(5-(1-methylcyclopropoxy)-1H-indazol-3-yl)pyridin-2-yl)piperidin-4-yl)oxy)cyclohexyl)methyl)piperazin-1-yl)-1-oxoisoindolin-2-yl)piperidine-2,6-dione] | 50 to 70% | < 10 nM |  | 
C[C@H]1CN(CC2(F)CCN(CC3CCN(c4cc(-c5n[nH]c6ccc(OC7(C)CC7)cc56)ncn4)CC3)CC2)CCN1c1ccc2c(c1F)CN(C1CCC(=O)NC1=O)C2=O (stereo partly drawn) [Compound 355, 3-{4-fluoro-5-[(2S)-4-({4-fluoro-1-[(1-{6-[5-(1-methylcyclopropoxy)-1H-indazol-3-yl]pyrimidin-4-yl}piperidin-4-yl)methyl]piperidin-4-yl}methyl)-2-methylpiperazin-1-yl]-1-oxo-2,3-dihydro-1H-isoindol-2-yl}piperidine-2,6-dione] | 50 to 70% | < 10 nM |  | 
COc1c(N2CCC(N3CC(OC4CCN(c5cc(-c6[nH]nc7ccc(OC8(C)CC8)cc67)ncn5)CC4)C3)CC2)ccc2c1CN(C1CCC(=O)NC1=O)C2=O (stereo not shown) [Compound 356, 3-[4-methoxy-5-(4-{3-[(1-{6-[5-(1-methylcyclopropoxy)-2H-indazol-3-yl]pyrimidin-4-yl}piperidin-4-yl)oxy]azetidin-1-yl}piperidin-1-yl)-1-oxo-2,3-dihydro-1H-isoindol-2-yl]piperidine-2,6-dione] | 50 to 70% | < 10 nM |  | 
COc1c(N2CC3(CCN(CCOC4CCN(c5cc(-c6n[nH]c7ccc(OC8(C)CC8)cc67)ncn5)CC4)CC3(F)F)C2)ccc2c1CN(C1CCC(=O)NC1=O)C2=O (stereo not shown) [Compound 357, 3-[5-(5,5-difluoro-7-{2-[(1-{6-[5-(1-methylcyclopropoxy)-1H-indazol-3-yl]pyrimidin-4-yl}piperidin-4-yl)oxy]ethyl}-2,7-diazaspiro[3.5]nonan-2-yl)-4-methoxy-1-oxo-2,3-dihydro-1H-isoindol-2-yl]piperidine-2,6-dione] |  |  | < 10 nM | 50 to 70%
CC1(Oc2ccc3[nH]nc(-c4ccnc(N5CCN(C[C@H]6CC[C@H](OC7CCN(c8ccc9c(c8F)CN(C8CCC(=O)NC8=O)C9=O)CC7)CC6)CC5)c4)c3c2)CC1 (stereo partly shown) [Compound 358, 3-[4-fluoro-1-oxo-5-(4-{[(1r,4r)-4-[(4-{4-[5-(1-methylcyclopropoxy)-1H-indazol-3-yl]pyridin-2-yl}piperazin-1-yl)methyl]cyclohexyl]oxy}piperidin-1-yl)-2,3-dihydro-1H-isoindol-2-yl]piperidine-2,6-dione] |  |  | < 10 nM | 50 to 70%
COc1c(N2CCC(CN3CCN(CC4CCN(c5cc(-c6n[nH]c7cc(F)c(OC8(C)CC8)cc67)ncn5)CC4)C(C)(C)C3)CC2)ccc2c1CN(C1CCC(=O)NC1=O)C2=O (stereo not shown) [Compound 359, 3-{5-[4-({4-[(1-{6-[6-fluoro-5-(1-methylcyclopropoxy)-1H-indazol-3-yl]pyrimidin-4-yl}piperidin-4-yl)methyl]-3,3-dimethylpiperazin-1-yl}methyl)piperidin-1-yl]-4-methoxy-1-oxo-2,3-dihydro-1H-isoindol-2-yl}piperidine-2,6-dione] |  |  | < 10 nM | 50 to 70%
COc1c(N2CCC(O[C@H]3CC[C@H](CN4CCN(c5cc(-c6n[nH]c7cc(F)c(OC8(C)CC8)cc67)ncn5)CC4)CC3)CC2)ccc2c1CN(C1CCC(=O)NC1=O)C2=O (stereo partly shown) [Compound 360, 3-[4-methoxy-1-oxo-5-(4-{[(1r,4r)-4-[(4-{6-[6-fluoro-5-(1-methylcyclopropoxy)-1H-indazol-3-yl]pyrimidin-4-yl}piperazin-1-yl)methyl]cyclohexyl]oxy}piperidin-1-yl)-2,3-dihydro-1H-isoindol-2-yl]piperidine-2,6-dione] |  |  | < 10 nM | 50 to 70%
CC1(Oc2ccc3[nH]nc(-c4cc(N5CCC(O[C@H]6CC[C@H](CN7CCN(c8ccc9c(c8F)CN(C8CCC(=O)NC8=O)C9=O)CC7(C)C)CC6)CC5)ncn4)c3c2)CC1 (stereo partly shown) [Compound 361, 3-[5-(3,3-dimethyl-4-{[(1r,4r)-4-[(1-{6-[5-(1-methylcyclopropoxy)-1H-indazol-3-yl]pyrimidin-4-yl}piperidin-4-yl)oxy]cyclohexyl]methyl}piperazin-1-yl)-4-fluoro-1-oxo-2,3-dihydro-1H-isoindol-2-yl]piperidine-2,6-dione] |  |  | < 10 nM | 50 to 70%
CC1(Oc2ccc3[nH]nc(-c4cc(N5CCC(OCCN6CCC7(CN(c8ccc9c(c8F)CN(C8CCC(=O)NC8=O)C9=O)C7)C(F)(F)C6)CC5)ncn4)c3c2)CC1 (stereo not shown) [Compound 362, 3-[5-(5,5-difluoro-7-{2-[(1-{6-[5-(1-methylcyclopropoxy)-1H-indazol-3-yl]pyrimidin-4-yl}piperidin-4-yl)oxy]ethyl}-2,7-diazaspiro[3.5]nonan-2-yl)-4-fluoro-1-oxo-2,3-dihydro-1H-isoindol-2-yl]piperidine-2,6-dione] |  |  | < 10 nM | 50 to 70%
COc1c(N2CC3(CCN(CCN4CCN(c5cc(-c6n[nH]c7ccc(OC8(C)CC8)cc67)ncn5)CC4)CC3(F)F)C2)ccc2c1CN(C1CCC(=O)NC1=O)C2=O (stereo not shown) [Compound 363, 3-(5-{5,5-difluoro-7-[2-(4-{6-[5-(1-methylcyclopropoxy)-1H-indazol-3-yl]pyrimidin-4-yl}piperazin-1-yl)ethyl]-2,7-diazaspiro[3.5]nonan-2-yl}-4-methoxy-1-oxo-2,3-dihydro-1H-isoindol-2-yl)piperidine-2,6-dione] |  |  | < 10 nM | 50 to 70%
COc1c(N2CCN(C[C@H]3CC[C@H](OC4CCN(c5cc(-c6n[nH]c7ccc(OC8(C)CC8)cc67)ncn5)CC4)CC3)C(C)(C)C2)ccc2c1CN(C1CCC(=O)NC1=O)C2=O (stereo partly shown) [Compound 364, 3-[5-(3,3-dimethyl-4-{[(1r,4r)-4-[(1-{6-[5-(1-methylcyclopropoxy)-1H-indazol-3-yl]pyrimidin-4-yl}piperidin-4-yl)oxy]cyclohexyl]methyl}piperazin-1-yl)-4-methoxy-1-oxo-2,3-dihydro-1H-isoindol-2-yl]piperidine-2,6-dione] |  |  | < 10 nM | 50 to 70%
Cc1nc(-c2n[nH]c3ccc(OC4(C)CC4)cc23)cc(N2CCN(C[C@H]3CC[C@H](OC4CCN(c5ccc6c(c5F)CN(C5CCC(=O)NC5=O)C6=O)CC4)CC3)CC2)n1 (stereo partly shown) [Compound 365, 3-[4-fluoro-1-oxo-5-(4-{[(1r,4r)-4-[(4-{2-methyl-6-[5-(1-methylcyclopropoxy)-1H-indazol-3-yl]pyrimidin-4-yl}piperazin-1-yl)methyl]cyclohexyl]oxy}piperidin-1-yl)-2,3-dihydro-1H-isoindol-2-yl]piperidine-2,6-dione] |  |  | < 10 nM | 50 to 70%
COc1c(N2CCC(O[C@H]3CC[C@H](CN4CCN(c5cc(-c6n[nH]c7ccc(OC8(C)CC8)cc67)ncn5)C[C@@H]4C)CC3)CC2)ccc2c1CN(C1CCC(=O)NC1=O)C2=O (stereo partly drawn) [Compound 366, 3-[4-methoxy-1-oxo-5-(4-{[(1r,4r)-4-{[(2S)-2-methyl-4-{6-[5-(1-methylcyclopropoxy)-1H-indazol-3-yl]pyrimidin-4-yl}piperazin-1-yl]methyl}cyclohexyl]oxy}piperidin-1-yl)-2,3-dihydro-1H-isoindol-2-yl]piperidine-2,6-dione] |  |  | < 10 nM | 50 to 70%
COc1c(N2CCC(O[C@H]3CC[C@H](CN4CCN(c5cc(-c6n[nH]c7ccc(OC8(C)CC8)cc67)nc(C)n5)CC4)CC3)CC2)ccc2c1CN(C1CCC(=O)NC1=O)C2=O (stereo partly shown) [Compound 367, 3-[4-methoxy-1-oxo-5-(4-{[(1r,4r)-4-[(4-{2-methyl-6-[5-(1-methylcyclopropoxy)-1H-indazol-3-yl]pyrimidin-4-yl}piperazin-1-yl)methyl]cyclohexyl]oxy}piperidin-1-yl)-2,3-dihydro-1H-isoindol-2-yl]piperidine-2,6-dione] |  |  | < 10 nM | 50 to 70%
COc1c(N2CCN(CC3(F)CCN(CC4CCN(c5cc(-c6n[nH]c7cnc(OC8(C)CC8)cc67)ncn5)CC4)CC3)CC2)ccc2c1CN(C1CCC(=O)NC1=O)C2=O (stereo not shown) [Compound 369, 3-{5-[4-({4-fluoro-1-[(1-{6-[5-(1-methylcyclopropoxy)-1H-pyrazolo[3,4-c]pyridin-3-yl]pyrimidin-4-yl}piperidin-4-yl)methyl]piperidin-4-yl}methyl)piperazin-1-yl]-4-methoxy-1-oxo-2,3-dihydro-1H-isoindol-2-yl}piperidine-2,6-dione] |  |  | < 10 nM | 50 to 70%
CC1(Oc2ccc3[nH]nc(-c4cc(N5CCN(C[C@H]6CC[C@H](CN7CCN(c8ccc9c(c8Cl)CN(C8CCC(=O)NC8=O)C9=O)CC7)CC6)CC5)ncn4)c3c2)CC1 (stereo partly shown) [Compound 370, 3-[4-chloro-1-oxo-5-(4-{[(1r,4r)-4-[(4-{6-[5-(1-methylcyclopropoxy)-1H-indazol-3-yl]pyrimidin-4-yl}piperazin-1-yl)methyl]cyclohexyl]methyl}piperazin-1-yl)-2,3-dihydro-1H-isoindol-2-yl]piperidine-2,6-dione] |  |  | < 10 nM | 50 to 70%
Cc1cc(-c2n[nH]c3ccc(OC4(C)CC4)nc23)cc(N2CCC(O[C@H]3CC[C@H](CN4CCN(c5ccc6c(c5F)CN(C5CCC(=O)NC5=O)C6=O)CC4)CC3)CC2)n1 (stereo partly shown) [Compound 371, 3-[4-fluoro-1-oxo-5-(4-{[(1r,4r)-4-[(1-{6-methyl-4-[5-(1-methylcyclopropoxy)-1H-pyrazolo[4,3-b]pyridin-3-yl]pyridin-2-yl}piperidin-4-yl)oxy]cyclohexyl]methyl}piperazin-1-yl)-2,3-dihydro-1H-isoindol-2-yl]piperidine-2,6-dione] |  |  | < 10 nM | 50 to 70%
